Measurements reported in patent publication US8829199B2, “Aminopyrazole derivative” (Chugai Seiyaku Kabushiki Kaisha, priority 2009, dated 2014).

Assays:
human FGFR3 enzyme = human FGFR3 enzyme (Homo sapiens (Human), UniProt P22607); experiment: Inhibitory activity against the FGFR3 enzyme (phosphorylation of biotinylated peptide, time-resolved fluorescence)
Description: Inhibitory Activity Against the FGFR3 Enzyme
(§1) Phosphorylated biotinylated peptides were detected by the time-resolved fluorescent measurement using a europium cryptate-linked anti-phophotyrosine antibody and a streptavidin to which XL665, a derivative of allophycocyanine, is linked.

human FGFR1 enzyme = human FGFR1 enzyme (Homo sapiens (Human), UniProt P11362); experiment: Inhibitory activity against the FGFR1 enzyme (phosphorylation of biotinylated peptide, time-resolved fluorescence)
Sequence of human FGFR1 enzyme (P11362 22-822): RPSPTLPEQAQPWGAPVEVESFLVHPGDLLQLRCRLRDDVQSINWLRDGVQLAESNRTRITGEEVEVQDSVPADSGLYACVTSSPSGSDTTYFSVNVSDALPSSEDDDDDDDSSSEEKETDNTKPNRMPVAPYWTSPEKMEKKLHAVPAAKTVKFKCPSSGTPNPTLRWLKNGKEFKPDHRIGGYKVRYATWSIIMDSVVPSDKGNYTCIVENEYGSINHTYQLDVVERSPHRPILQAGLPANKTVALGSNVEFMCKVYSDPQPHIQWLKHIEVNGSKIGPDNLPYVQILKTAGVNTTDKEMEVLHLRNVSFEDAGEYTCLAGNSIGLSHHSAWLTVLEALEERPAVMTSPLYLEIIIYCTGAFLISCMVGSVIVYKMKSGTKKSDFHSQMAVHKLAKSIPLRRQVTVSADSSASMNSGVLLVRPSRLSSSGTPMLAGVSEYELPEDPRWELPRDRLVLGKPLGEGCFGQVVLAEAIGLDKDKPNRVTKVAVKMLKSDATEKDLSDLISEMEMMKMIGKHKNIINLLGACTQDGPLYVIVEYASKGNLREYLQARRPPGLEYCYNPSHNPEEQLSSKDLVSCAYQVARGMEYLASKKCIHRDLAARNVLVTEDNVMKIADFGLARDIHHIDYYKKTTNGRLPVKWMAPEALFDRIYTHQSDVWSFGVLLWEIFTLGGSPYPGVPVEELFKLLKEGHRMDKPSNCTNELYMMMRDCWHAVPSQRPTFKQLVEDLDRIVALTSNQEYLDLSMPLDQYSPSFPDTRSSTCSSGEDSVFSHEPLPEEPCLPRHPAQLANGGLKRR
Description: Inhibitory Activity Against the FGFR1 Enzyme
as §1

human FGFR2 enzyme = human FGFR2 enzyme (Homo sapiens (Human), UniProt P21802); experiment: Inhibitory activity against the FGFR2 enzyme (phosphorylation of biotinylated peptide, time-resolved fluorescence)
Sequence of human FGFR2 enzyme (P21802 22-821): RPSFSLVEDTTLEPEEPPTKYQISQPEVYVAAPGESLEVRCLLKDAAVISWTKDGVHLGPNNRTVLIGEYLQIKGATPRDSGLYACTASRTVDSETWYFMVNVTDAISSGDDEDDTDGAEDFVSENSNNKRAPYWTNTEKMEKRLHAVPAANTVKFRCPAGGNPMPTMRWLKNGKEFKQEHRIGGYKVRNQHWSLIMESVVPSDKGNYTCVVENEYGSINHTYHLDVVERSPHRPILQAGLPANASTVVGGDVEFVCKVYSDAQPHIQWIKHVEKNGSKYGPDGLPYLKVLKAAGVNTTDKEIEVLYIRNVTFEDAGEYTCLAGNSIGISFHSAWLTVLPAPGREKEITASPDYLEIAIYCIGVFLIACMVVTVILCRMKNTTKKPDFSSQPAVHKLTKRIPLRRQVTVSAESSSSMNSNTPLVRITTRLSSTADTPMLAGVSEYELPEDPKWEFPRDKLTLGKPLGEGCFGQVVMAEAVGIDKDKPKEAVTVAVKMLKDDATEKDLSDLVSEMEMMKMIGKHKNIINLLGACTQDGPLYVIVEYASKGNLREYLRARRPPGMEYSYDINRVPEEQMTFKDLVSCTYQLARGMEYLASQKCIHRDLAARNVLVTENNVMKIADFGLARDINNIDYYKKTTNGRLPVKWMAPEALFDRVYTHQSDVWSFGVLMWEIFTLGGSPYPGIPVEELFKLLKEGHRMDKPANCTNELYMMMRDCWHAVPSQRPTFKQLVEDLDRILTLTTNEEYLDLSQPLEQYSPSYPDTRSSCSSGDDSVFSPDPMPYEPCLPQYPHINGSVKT
Description: as §1

Sequence of human FGFR3 enzyme (P22607 23-806): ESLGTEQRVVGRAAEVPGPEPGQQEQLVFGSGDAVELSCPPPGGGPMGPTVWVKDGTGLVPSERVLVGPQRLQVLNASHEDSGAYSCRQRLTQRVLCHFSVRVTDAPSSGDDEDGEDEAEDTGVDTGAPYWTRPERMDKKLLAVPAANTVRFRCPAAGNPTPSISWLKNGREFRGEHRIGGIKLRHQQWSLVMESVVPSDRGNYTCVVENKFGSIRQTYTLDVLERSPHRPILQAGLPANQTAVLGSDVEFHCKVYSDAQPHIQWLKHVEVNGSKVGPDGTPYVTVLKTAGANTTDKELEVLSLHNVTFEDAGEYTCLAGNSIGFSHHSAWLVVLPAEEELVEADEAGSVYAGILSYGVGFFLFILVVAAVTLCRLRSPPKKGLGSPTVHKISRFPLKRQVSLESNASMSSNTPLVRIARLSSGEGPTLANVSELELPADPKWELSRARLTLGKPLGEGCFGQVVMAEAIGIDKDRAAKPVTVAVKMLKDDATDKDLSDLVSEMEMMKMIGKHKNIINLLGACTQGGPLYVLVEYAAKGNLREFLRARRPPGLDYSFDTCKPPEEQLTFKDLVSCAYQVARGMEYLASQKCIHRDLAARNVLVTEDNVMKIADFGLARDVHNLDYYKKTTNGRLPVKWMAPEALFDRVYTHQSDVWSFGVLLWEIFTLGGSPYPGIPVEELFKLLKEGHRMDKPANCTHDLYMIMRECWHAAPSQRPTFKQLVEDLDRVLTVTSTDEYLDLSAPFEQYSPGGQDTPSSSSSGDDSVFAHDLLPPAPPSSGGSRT

Row | IC50 (human FGFR3 enzyme) | IC50 (human FGFR1 enzyme) | IC50 (human FGFR2 enzyme) | Compound
1 | ≤ 300 nM | – | – | Cc1ccnc(-c2ccc3cc(C(=O)c4cnn(-c5ccc6[nH]c(C)nc6c5)c4N)[nH]c3c2)c1 [Example 32]
2 | ≤ 300 nM | ≤ 300 nM | ≤ 300 nM | Cc1nc2cc(-n3ncc(C(=O)c4cc5ccc(-c6ccc(N7CCNCC7)nc6)cc5[nH]4)c3N)ccc2[nH]1 [Example 110, [5-amino-1-(2-methyl-1H-benzimidazol-5-yl)-1H-pyrazol-4-yl]-[6-(6-piperazin-1-yl-pyridin-3-yl)-1H-indol-2-yl]-methanone]
3 | ≤ 300 nM | – | – | Cc1nc2cc(-n3ncc(C(=O)c4cc5ccc(-c6ccnnc6)cc5[nH]4)c3N)ccc2[nH]1 [Example 89, [5-amino-1-(2-methyl-1H-benzimidazol-5-yl)-1H-pyrazol-4-yl]-(6-pyridazin-4-yl-1H-indol-2-yl)-methanone]
4 | ≤ 300 nM | – | – | Cc1nc2cc(-n3ncc(C(=O)c4cc5cc6c(cc5[nH]4)OCO6)c3N)ccc2[nH]1 [Example 61, [5-amino-1-(2-methyl-1H-benzimidazol-5-yl)-1H-pyrazol-4-yl]-(5H-[1,3]dioxolo[4,5-f]indol-6-yl)-methanone]
